This note sets out measurements from patent US10246455B2, “Histone deacetylase inhibitors” (Taipei Medical University, priority 2014, dated 2019).

Each structure is given as a SMILES string.

The test system of one data set is HDAC1-10. As to the kind of experiment: SDS-PAGE and western blot analysis: HDAC1-10 in PC3 cells. Type of data set: cell-based, human. The settings on record: 48 hours. Here is the method:
More specifically, cells in the logarithmic phase were initially seeded at a density of 1×10^6 in 100 mm^2 dishes. […] IC50 indicia of compound in vitro potency) for the indicated times (i.e., 24 and 48 hours), adherent cells were collected for protein extract preparation. Briefly, cells were lysed with the cell lysis reagent CelLytic™ M (Sigma-Aldrich) containing 1 mM DTT, 1 mM PMSF and protease inhibitors for whole-cell lysate preparation. Equal amounts of lysate (on a protein basis) were then differentiated using the SDS-PAGE, blotted on PVDF membranes, conjugated with various specific primary antibodies, and then probed with appropriate secondary antibodies. The immunoreactive bands were detected using the ECL method and visualized on Kodak Bio-MAX MR film. Proteins from cells were extracted and subjected to the western blotting analysis. β-Actin was used as an internal control. The deacetylase enzyme assay was based on a homogeneous fluorescence release assay. […] After fluorophore from the deacetylated substrates, fluorescent signal was detected.
Background: A western blot detects proteins with antibodies after separation by electrophoresis.

For another data set, the system named is C6 glioma cell line. The data set is described as follows: Cell proliferation in C6 glioma in vitro (MTT). The settings on record: rat C6 glioma. Type of data set: cell-based. The source says: C6 glioma cell line was obtained from American Type Culture Collection.
Data set [1] concerns human colorectal HCT116 xenograft. The data set is described as follows: In vivo antitumor activity assay, HCT116 xenograft. The settings on record: for inhibition of human colorectal HCT116 xenograft growth: day 22 after the first dosing. The source says: The antitumor effect of the two test compounds were examined in mice xenografted with human PC3 prostate cancer cells or HCT116 colorectal cells.
Five million PC3 cells were subcutaneously inoculated into specific pathogen-free male athymic mice (strain BALB/cAnN.Cg-Foxn1nu/CrlNarl) from the National Laboratory Animal Center, Taiwan. Mice were subsequently fed under specific pathogen-free conditions and provided with sterile water and food. When the tumor volume reached 150 to 200 mm^3, mice were assigned to groups randomly and treated with vehicle control or Compound 7 or 5b at 25/50/100 mg/kg. The compound was administered once a day, 5 days/week for 2 weeks (n=6) by oral administration. Tumor volume and body weight change were measured twice a week. At the end of the experiments (day 25 after first dosing), animals were euthanized in a CO2-containing chamber, and the tumors were collected and fixed in formaldehyde. The terminal deoxynucleotidyl transferase-mediated dUTP nick end labeling assay (TUNEL) was conducted for apoptosis detection. Tumor tissue sections were analyzed using a FITC In Situ Cell death detection kit (Roche) and fluorescence microscopy. Tissue treated with DNase was used as the positive control. Green fluorescence labeled nucleus indicates the induction of DNA fragmentation.
(Xenograft models place foreign cells or tissue in a host animal.)

Data set [2] relates to human glioblastoma (U87-MG-LucNeo cells) xenograft. The data set is described as follows: Orthotopic tumor size measurement (bioluminescence imaging). Type of data set: in vivo, mice. The settings on record: Compound 7 25 mg/kg versus SAHA 150 mg/kg and TMZ 25 mg/kg. The source says: Another parallel set of xenografted nude mice treated with drug or vehicle treatment as described above were used in this experiment.

Another data set concerns TSGH (gastric carcinoma). As to the kind of experiment: IC50 in human cancer cell lines (inhibiting HDAC): TSGH. The settings on record: read-out: IC50, inhibiting HDAC in human cancer cell lines.
A further data set has as its system MCF-7 (breast carcinoma). As to the kind of experiment: IC50 in human cancer cell lines (inhibiting HDAC): MCF-7. The settings on record: MCF7, read-out: IC50, inhibiting HDAC in human cancer cell lines.
A further data set deals with HDAC 1 (Homo sapiens, UniProt Q13547). The data set is described as follows: Deacetylase enzyme assay (fluorescence release): HDAC1. The settings on record: 24-hour study. Type of data set: biochemical. An excerpt:
(§1) Proteins from cells were extracted and subjected to the western blotting analysis. β-Actin was used as an internal control. The deacetylase enzyme assay was based on a homogeneous fluorescence release assay. […] After fluorophore from the deacetylated substrates, fluorescent signal was detected.

The next data set concerns the target HDAC2 (Homo sapiens, UniProt Q92769). As to the kind of experiment: Deacetylase enzyme assay (fluorescence release): HDAC2. It is filed as biochemical. The settings on record: 24-hour study.
Excerpt: as §1

The next data set addresses HDAC6 (Homo sapiens, UniProt Q9UBN7). As to the kind of experiment: Deacetylase enzyme assay (fluorescence release): HDAC6. Type of data set: biochemical. The settings on record: 24-hour study.
Excerpt: as §1

The test system of data set [3] is histone and α-tubulin acetylation in MDA-MD-231 breast carcinoma. As to the kind of experiment: Western blot: acetylation in MDA-MD-231 cells. Type of data set: cell-based, human. The method, then:
More specifically, cells in the logarithmic phase were initially seeded at a density of 1×10^6 in 100 mm^2 dishes. […] Briefly, cells were lysed with the cell lysis reagent CelLytic™ M (Sigma-Aldrich) containing 1 mM DTT, 1 mM PMSF and protease inhibitors for whole-cell lysate preparation. Equal amounts of lysate (on a protein basis) were then differentiated using the SDS-PAGE, blotted on PVDF membranes, conjugated with various specific primary antibodies, and then probed with appropriate secondary antibodies. The immunoreactive bands were detected using the ECL method and visualized on Kodak Bio-MAX MR film.
as §1

Data set [4] relates to K6 (normal: keratinocyte). The data set is described as follows: IC50 against cell lines: K6. The settings on record: Homo sapiens, read-out: IC50 ± SD against human cancer cell lines.
Data set [5] concerns HUVEC (normal: endothelial). The data set is described as follows: IC50 against cell lines: HUVEC. The settings on record: Homo sapiens, read-out: IC50 ± SD against human cancer cell lines.
A further data set concerns WI-38 (normal: lung). As to the kind of experiment: IC50 against cell lines: WI-38. The settings on record: Homo sapiens, WI-38, read-out: IC50 ± SD against human cancer cell lines.
Data set [6] concerns RWPE-1 (normal: prostate). As to the kind of experiment: IC50 against cell lines: RWPE-1. The settings on record: Homo sapiens, RWPE-1, read-out: IC50 ± SD against human cancer cell lines.
Data set [7] concerns Detroit551 (normal: fibroblast). As to the kind of experiment: IC50 against cell lines: Detroit551. The settings on record: Homo sapiens, Detroit 551, read-out: IC50 ± SD against human cancer cell lines.
The test system of a further data set is H9 (T cell lymphoma). The data set is described as follows: IC50 against human cancer cell lines: H9. The settings on record: read-out: IC50 ± SD against human cancer cell lines.
The next data set concerns BJAB (B cell lymphoma). The data set is described as follows: IC50 against human cancer cell lines: BJAB. The settings on record: read-out: IC50 ± SD against human cancer cell lines.
Another data set deals with KB-7D (KB resistant). The data set is described as follows: IC50 against human cancer cell lines: KB-7D. The settings on record: KB7D, read-out: IC50 ± SD against human cancer cell lines.
A further data set deals with KB-L30 (KB-resistant). As to the kind of experiment: IC50 against human cancer cell lines: KB-L30. The settings on record: read-out: IC50 ± SD against human cancer cell lines.
In data set [8] the test system is LNCaP-R2 (prostate carcinoma). The data set is described as follows: IC50 against human cancer cell lines: LNCaP-R2. The settings on record: read-out: IC50 ± SD against human cancer cell lines.
Data set [9] relates to LNCaP-104 (prostate carcinoma). The data set is described as follows: IC50 against human cancer cell lines: LNCaP-104. The settings on record: read-out: IC50 ± SD against human cancer cell lines.

HDAC2, sequence (Q92769 whole entry, species assumed): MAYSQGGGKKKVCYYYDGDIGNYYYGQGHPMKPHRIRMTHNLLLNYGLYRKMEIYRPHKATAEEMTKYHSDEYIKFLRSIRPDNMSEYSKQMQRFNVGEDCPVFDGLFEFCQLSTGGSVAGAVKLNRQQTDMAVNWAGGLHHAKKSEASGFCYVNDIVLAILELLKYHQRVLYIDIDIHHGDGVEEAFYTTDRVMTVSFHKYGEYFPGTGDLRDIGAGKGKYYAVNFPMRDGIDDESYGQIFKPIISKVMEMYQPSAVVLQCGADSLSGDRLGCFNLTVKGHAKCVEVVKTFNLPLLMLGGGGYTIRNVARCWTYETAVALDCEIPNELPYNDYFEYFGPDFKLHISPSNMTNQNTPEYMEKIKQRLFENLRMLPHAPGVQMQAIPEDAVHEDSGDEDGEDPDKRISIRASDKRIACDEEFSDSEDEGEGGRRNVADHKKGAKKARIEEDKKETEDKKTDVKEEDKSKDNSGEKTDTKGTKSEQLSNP
HDAC6, sequence (Q9UBN7 whole entry, species assumed): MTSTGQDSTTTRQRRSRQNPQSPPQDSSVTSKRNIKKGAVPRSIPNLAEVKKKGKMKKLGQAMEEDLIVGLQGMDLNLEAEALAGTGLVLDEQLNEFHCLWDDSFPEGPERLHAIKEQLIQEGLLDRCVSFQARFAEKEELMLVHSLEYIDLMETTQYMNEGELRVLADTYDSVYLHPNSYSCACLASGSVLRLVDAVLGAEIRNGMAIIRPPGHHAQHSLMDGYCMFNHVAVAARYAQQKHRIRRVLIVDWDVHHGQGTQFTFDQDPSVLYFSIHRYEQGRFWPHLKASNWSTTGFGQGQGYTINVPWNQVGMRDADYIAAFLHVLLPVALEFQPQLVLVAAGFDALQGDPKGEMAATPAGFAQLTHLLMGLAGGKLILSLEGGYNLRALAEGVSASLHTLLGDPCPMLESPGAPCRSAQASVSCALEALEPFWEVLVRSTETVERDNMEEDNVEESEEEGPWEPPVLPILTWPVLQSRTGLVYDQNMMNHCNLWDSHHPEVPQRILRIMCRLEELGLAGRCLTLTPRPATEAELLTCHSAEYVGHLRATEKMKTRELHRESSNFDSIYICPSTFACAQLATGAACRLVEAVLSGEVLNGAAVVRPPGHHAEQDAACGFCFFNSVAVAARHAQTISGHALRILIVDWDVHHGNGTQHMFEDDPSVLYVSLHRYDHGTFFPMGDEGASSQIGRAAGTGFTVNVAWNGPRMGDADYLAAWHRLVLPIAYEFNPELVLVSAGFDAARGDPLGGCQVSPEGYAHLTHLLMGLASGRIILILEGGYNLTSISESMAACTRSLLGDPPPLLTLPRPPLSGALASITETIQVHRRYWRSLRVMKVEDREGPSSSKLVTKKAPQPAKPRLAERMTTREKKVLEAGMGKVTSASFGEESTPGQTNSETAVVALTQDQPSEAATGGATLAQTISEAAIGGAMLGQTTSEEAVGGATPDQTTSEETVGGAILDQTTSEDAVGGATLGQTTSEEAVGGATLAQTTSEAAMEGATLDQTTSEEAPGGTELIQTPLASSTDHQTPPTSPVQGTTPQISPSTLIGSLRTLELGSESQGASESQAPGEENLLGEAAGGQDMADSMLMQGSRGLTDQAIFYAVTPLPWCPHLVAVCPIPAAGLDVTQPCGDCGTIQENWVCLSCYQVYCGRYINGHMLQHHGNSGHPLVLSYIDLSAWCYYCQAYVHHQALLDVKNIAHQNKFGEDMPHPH
HDAC 1, sequence (Q13547 whole entry, species assumed): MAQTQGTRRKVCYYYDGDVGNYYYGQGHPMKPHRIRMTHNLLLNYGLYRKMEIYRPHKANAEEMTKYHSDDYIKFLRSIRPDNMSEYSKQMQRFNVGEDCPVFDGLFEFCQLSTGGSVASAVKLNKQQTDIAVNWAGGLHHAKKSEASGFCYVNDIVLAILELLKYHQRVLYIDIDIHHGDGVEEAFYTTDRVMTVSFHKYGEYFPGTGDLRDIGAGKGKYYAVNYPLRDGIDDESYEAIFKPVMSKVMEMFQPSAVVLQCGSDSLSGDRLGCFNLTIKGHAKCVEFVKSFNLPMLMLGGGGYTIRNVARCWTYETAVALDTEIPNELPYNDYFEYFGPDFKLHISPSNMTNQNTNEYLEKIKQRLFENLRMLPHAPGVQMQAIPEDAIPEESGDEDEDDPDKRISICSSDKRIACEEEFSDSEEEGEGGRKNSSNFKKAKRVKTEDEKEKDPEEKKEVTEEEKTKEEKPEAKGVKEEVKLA
Method for KB-7D (KB resistant): (§2) More specifically, the IC50 values of test compounds were determined by carrying out a fluorimetric histone deacetylase assay following the manufacturer's instructions. For a pan-HDAC assay, HeLa nuclear extracts were used as a source of histone deacetylase (BioVision Inc.). Histone deacetylase isomer inhibition assays were conducted using purified recombinant histone deacetylase proteins of the various isomers (BPS Bioscience Inc.). Reactions were performed in 0.1 mol/L KCl, 20 mmol/L HEPES/NaOH at pH 7.9, 20% glycerol, 0.2 mmol/L DTA, 0.5 mmol/L DTT, and 0.5 mmol/L phenylmethylsulfonylfluoride. […] Reactions were carried out in triplicate for each test compound. Each point represented the mean±SD of replicates.
Method for KB-L30 (KB-resistant): as §2
Method for TSGH (gastric carcinoma): as §2

For the compound `O=C(/C=C/c1cccc(S(=O)(=O)n2ccc3cccnc32)c1)NO` [Compound 7, (E)-3-(3-(1H-Pyrrolo[2,3-b]pyridin-1-ylsulfonyl)phenyl)-N-hydroxyacrylamide], in the data set with HDAC1-10, the “inhibition of HDAC1-10 activities in PC3 cells” value is given as “inhibited HDAC1-10 activities in PC3 cells in a concentration-dependent manner”. In addition, the inhibition at 30 µM in the data set on C6 glioma cell line is approximately 50%. For the same compound, the “inhibition of human colorectal HCT116 xenograft growth” value in [1] (25 mg/kg), in data set [1] (50 mg/kg) and in data set [1] (100 mg/kg) was 50-60% each time. Further, the body weight change entry in [1] (HCT116 xenograft mice, 25, 50 and 100 mg/kg) is “without causing much body weight change”. For the same compound, the “tumor size (bioluminescence imaging)” value in [2] was “decreased the tumor size more than a higher dose of SAHA (150 mg/kg) or the same dose of TMZ (25 mg/kg)”. Besides, the results for the IC50 in the data set on TSGH (gastric carcinoma) and in the data set with MCF-7 (breast carcinoma) were 2100 ± 110 nM and 1330 ± 360 nM, respectively.
As to `COc1ccc(S(=O)(=O)N2CCc3cc(/C=C/C(=O)NO)cnc32)cc1` [Compound 5b, (E)-N-hydroxy-3-(1-(4-methoxyphenylsulfonyl)-2,3-dihydro-1H-pyrrolo[2,3-b]pyridin-5-yl)acrylamide], the “concentration inducing inhibition of HDAC 1” value at HDAC 1 is on record as not above 50 nM. Also, on HDAC2, the “concentration inducing inhibition of HDAC2” value is recorded as not above 50 nM. Also, on HDAC6, the “concentration inducing inhibition of HDAC6” value was “about 100 nM”. Further, the “histone and α-tubulin acetylation” value in data set [3] is “induced histone and α-tubulin acetylation”. The IC50 in data set [4] amounted to 545 ± 39 nM; in data set [5] it was 62 ± 2.8 nM; with WI-38 (normal: lung) it was 272 ± 52.3 nM; in data set [6], 240 ± 108 nM; in [7] it was 707 ± 64.7 nM; with H9 (T cell lymphoma), 55.4 ± 7.8 nM. Also, the IC50 with BJAB (B cell lymphoma) was determined as 161 ± 20.3 nM; in the data set with KB-7D (KB resistant), 139 ± 26.8 nM; in the data set with KB-L30 (KB-resistant) it was 175 ± 26.8 nM; in [8], 100 ± 40 nM; in data set [9], 180 ± 70 nM.

For orientation: inhibition means the change of the read-out against control, counted positive when it falls. As usually defined, the IC50 is the concentration that inhibits the measured activity by half.
